Results on 1 molecule are retold here after paper PMC6386944, “Design and Synthesis of A PD-1 Binding Peptide and Evaluation of Its Anti-Tumor Activity” (International Journal of Molecular Sciences, 2019).

Bridge positions count the residues as written; N and C are the ends. Peptide text beside a SMILES is read from it. * marks the point of attachment. FITC = O=C1OC2(c3ccc(O)cc3Oc3cc(O)ccc32)c2ccc(NC(=S)*)cc21; Ahx = NCCCCCC(=O)O

For this data set, the system named is TE-13 cells co-cultured with T cells. The experiment in a line: Lactate dehydrogenase (LDH) release assay, T cell cytotoxicity. Type of data set: cell-based, human. To be noted: TE-13 and T cells at 16:1; FITC-YT-16 1, 2, 4, 8 and 16 µM; overnight, 37 °C; A490; triplicate wells. The text has this:
The experiment in Figure 10 mainly evaluated the activation status of CD4^+ T cells by detection of IL-2 and INF-γ levels in the culture supernatant. The test in Figure 11 mainly evaluated the enhanced cytotoxicity by CD8^+ T cells by detection of lactate dehydrogenase (LDH) release in the culture supernatant. Activated CD8 T cells can recognize tumor cells and kill tumor cells by means of degranulation and Fas/FasL recognition. After the tumor cells were damaged, a cytoplasmic enzyme with name lactate dehydrogenase (LDH) is released from damaged cells into the supernatant and by measuring the levels of LDH, we can evaluate the cytotoxic effect of CD8 T cells. […]
Effect of FITC-YT-16 peptide on T cell cytotoxicity was detected by measuring the release of a cytoplasmic enzyme, lactate dehydrogenase (LDH), from damaged cells into the supernatant by using a colorimetric assay according to cytotoxicity detection kit (Cayman Chemical, Ann Arbor, MI, USA). […] The supernatant was transferred to a new 96-well assay plate and the LDH reaction solution was added to each well and incubated for 30 min at 37 °C before the absorbance was read at 490 nm. […] Triplicate wells were averaged and the percentage of specific lysis was calculated by the following equation: % Cytotoxicity=[Experimental value A490−Spontaneous release A490/Maximum release A490−Spontaneous release A490]∗100

`CC[C@H](C)[C@@H]1NC(=O)[C@H](CCSC)NC(=O)[C@@H](NC(=O)[C@H](CCCNC(=N)N)NC(=O)[C@H](Cc2ccc(O)cc2)NC(=O)CCCCCNC(=S)Nc2ccc3c(c2)C(=O)OC32c3ccc(O)cc3Oc3cc(O)ccc32)CSSC[C@@H](C(=O)N[C@H](C(=O)N[C@H](C(=O)O)[C@@H](C)O)[C@@H](C)CC)NC(=O)[C@H](CCCCN)NC(=O)[C@H](Cc2ccc(O)cc2)NC(=O)[C@H](CC(=O)O)NC(=O)[C@H](C)NC(=O)CNC(=O)CNC(=O)[C@H](Cc2ccc(O)cc2)NC(=O)[C@H](CO)NC1=O` [FITC-YT-16] ({FITC-Ahx}-YRCMISYGGADYKCIT-OH; disulfide 3-14): the “T cell cytotoxicity, concentration dependence” value is recorded as “dose-dependently increased”.
